Structures are written as SMILES.

The subject of the first test is OF1 mice. Kind of test: Maximal electroshock test (MES Test). The class given is in vivo. As to conditions: Mus musculus, po; 50 mg/kg, p.o., pre-treatment time −1 h; read-out: %-Protection. The method, then:
Compounds of the invention were tested in OF1 mice using the maximal electroshock test (MES Test) described in detail by Schmutz et al., Naunyn-Schmiedeberg's Arch Pharmacol 1990, 342, 61-66. Briefly, generalized tonic-clonic convulsions of the hind extremities were induced by passing electrical current through temporal electrodes (50 Hz, 18 mA, 0.2s). […] 30 mg/kg carbamazepine was used as a positive control; mice were classified as protected by a compound If the duration of the seizure lasted only 3 second or less. Five mice were used for each treatment condition and the percentage of protected mice was used as readout (i.e. a compound could give 0%, 20%, 40%, 60%, 80% or 100% protection). Usually, compounds of the invention or their parents were given at a dose of 50 mg/kg, p.o., 1 hour prior to induction of convulsions (i.e. “pre-treatment time −1 h”).
ED50 values (ED: effective dose) were calculated using GraphPad Prism, v4.02. after shock administration, mouse blood was collected for determination of compounds' blood exposure.
A general note: In the maximal electroshock model the usual endpoint is tonic extension of the hind limbs.
Turning to `CCc1cc2[nH]c(=O)n(N(C(=O)OC(C)C)S(C)(=O)=O)c(=O)c2cc1-c1ccnn1C` [Example 2.12, Methanesulfonyl-[7-ethyl-6-(2-methyl-2H-pyrazol-3-yl)-2,4-dioxo-1,4-dihydro-2H-quinazolin-3-yl]-carbamic acid isopropyl ester], the responders at 50 mg/kg was found to be 60%.

In the case of `CCCCCC(=O)N(n1c(=O)[nH]c2cc(C(C)C)c(-c3ccnn3C)cc2c1=O)S(C)(=O)=O` [Example 3.14, N-Hexanoyl-N-[7-isopropyl-6-(2-methyl-2H-pyrazol-3-yl)-2,4-dioxo-1,4-dihydro-2H-quinazolin-3-yl]-methanesulfonamide], the responders at 50 mg/kg turned out to be 100%.

In the case of `CC(=O)N(n1c(=O)[nH]c2cc(C(F)(F)F)c(-c3ccnn3C(C)C)cc2c1=O)S(C)(=O)=O` [Example 5.01, N-Acetyl-N-[6-(2-isopropyl-2H-pyrazol-3-yl)-2,4-dioxo-7-trifluoromethyl-1,4-dihydro-2H-quinazolin-3-yl]-methanesulfonamide], the responders at 50 mg/kg came to 60%.

For `CSCCC(=O)N(n1c(=O)[nH]c2cc(C(F)(F)F)c(-c3ccnn3C(C)C)cc2c1=O)S(C)(=O)=O` [Example 5.13, N-[6-(2-Isopropyl-2H-pyrazol-3-yl)-2,4-dioxo-7-trifluoromethyl-1,4-dihydro-2H-quinazolin-3-yl]-N-(3-methylsulfanyl-propionyl)-methanesulfonamide], the responders at 50 mg/kg was 40%.

In the case of `CCCCOC(=O)N(n1c(=O)[nH]c2cc(CC)c(-c3ccnn3C)cc2c1=O)S(C)(=O)=O` [Example 2.09, Methanesulfonyl-[7-ethyl-6-(2-methyl-2H-pyrazol-3-yl)-2,4-dioxo-1,4-dihydro-2H-quinazolin-3-yl]-carbamic acid butyl ester], the responders at 50 mg/kg was found to be 40%.

`CC(C)C(=O)N(n1c(=O)[nH]c2cc(C(C)C)c(-c3ccnn3C)cc2c1=O)S(C)(=O)=O` [Example 3.16, N-Isobutyryl-N-[7-isopropyl-6-(2-methyl-2H-pyrazol-3-yl)-2,4-dioxo-1,4-dihydro-2H-quinazolin-3-yl]-methanesulfonamide]: the responders at 50 mg/kg was 60%.

As to `CCCOC(=O)N(n1c(=O)[nH]c2cc(C(F)(F)F)c(-n3ccnc3C)cc2c1=O)S(C)(=O)=O` [Example 7.03, Methanesulfonyl-[6-(2-methyl-imidazol-1-yl)-2,4-dioxo-7-trifluoromethyl-1,4-dihydro-2H-quinazolin-3-yl]-carbamic acid propyl ester], the responders at 50 mg/kg turned out to be 40%.

For the compound `CCC(OC)c1cc2c(=O)n(N(C(=O)C(C)C)S(C)(=O)=O)c(=O)[nH]c2cc1C(F)(F)F` (centres unmarked) [Example 11.06, N-Isobutyryl-N-[6-(1-methoxy-propyl)-2,4-dioxo-7-trifluoromethyl-1,4-dihydro-2H-quinazolin-3-yl]-methanesulfonamide], the responders at 50 mg/kg was 100%.

`CCCCCC(=O)N(n1c(=O)[nH]c2cc(C(F)(F)F)c(C(O)CC)cc2c1=O)S(C)(=O)=O` (centres unmarked) [Example 12.01, N-Hexanoyl-N-[6-(1-hydroxy-propyl)-2,4-dioxo-7-trifluoromethyl-1,4-dihydro-2H-quinazolin-3-yl]-methanesulfonamide]: the responders at 50 mg/kg was 40%.

For the compound `CCc1cc2[nH]c(=O)n(N(C(=O)OCC(C)C)S(C)(=O)=O)c(=O)c2cc1-c1ccnn1CC` [Example 13.01, Methanesulfonyl-[7-ethyl-6-(2-ethyl-2H-pyrazol-3-yl)-2,4-dioxo-1,4-dihydro-2H-quinazolin-3-yl]carbamic acid isobutyl ester], the responders at 50 mg/kg stood at 20%.

Take `CC(=O)OCC(=O)N(n1c(=O)[nH]c2cc(C(F)(F)F)c(-n3cccc3)cc2c1=O)S(C)(=O)=O` [Example 8.03, Acetic acid 2-[(2,4-dioxo-6-pyrrol-1-yl-7-trifluoromethyl-1,4-dihydro-2H-quinazolin-3-yl)-methanesulfonyl-amino]-2-oxo-ethyl ester]: the responders at 50 mg/kg amounted to 40%.

Consider `CCn1nccc1-c1cc2c(=O)n(N(C(=O)COC(C)=O)S(C)(=O)=O)c(=O)[nH]c2cc1C(F)F` [Example 14.01, Acetic acid 2-{[7-difluoromethyl-6-(2-ethyl-2H-pyrazol-3-yl)-2,4-dioxo-1,4-dihydro-2H-quinazolin-3-yl]-methanesulfonyl-amino}-2-oxo-ethyl ester], for which the responders at 50 mg/kg came out at 20%.

Consider `CCc1cc2c(cc1-c1ccnn1C)c(=O)n(N(C(C)=O)S(C)(=O)=O)c(=O)n2C(C)=O` [Example 2.14, N-Acetyl-N-[1-acetyl-7-ethyl-6-(2-methyl-2H-pyrazol-3-yl)-2,4-dioxo-1,4-dihydro-2H-quinazolin-3-yl]-methanesulfonamide], for which the responders at 50 mg/kg is 100%.

For the compound `CC(=O)N(n1c(=O)c2cc(-c3ccnn3C)c(C(C)C)cc2n(C(C)=O)c1=O)S(C)(=O)=O` [Example 3.24, N-Acetyl-N-[1-acetyl-7-isopropyl-6-(2-methyl-2H-pyrazol-3-yl)-2,4-dioxo-1,4-dihydro-2H-quinazolin-3-yl]-methanesulfonamide], the responders at 50 mg/kg amounted to 100%.

Turning to `CCCCC(=O)N(n1c(=O)[nH]c2cc(CC)c(-c3ccnn3C)cc2c1=O)S(C)(=O)=O` [Example 2.11, N-[7-Ethyl-6-(2-methyl-2H-pyrazol-3-yl)-2,4-dioxo-1,4-dihydro-2H-quinazolin-3-yl]-N-pentanoyl-methanesulfonamide], the responders at 50 mg/kg came to 100%.

As for `CCCC(=O)N(n1c(=O)[nH]c2cc(C(F)(F)F)c(-n3cccc3)cc2c1=O)S(C)(=O)=O` [Example 8.02, N-Butyryl-N-(2,4-dioxo-6-pyrrol-1-yl-7-trifluoromethyl-1,4-dihydro-2H-quinazolin-3-yl)-methanesulfonamide], the responders at 50 mg/kg was found to be 20%.

As for `CCCOC(=O)N(n1c(=O)[nH]c2cc(C(F)F)c(-c3ccnn3C(C)C)cc2c1=O)S(C)(=O)=O` [Example 6.04, [7-Difluoromethyl-6-(2-isopropyl-2H-pyrazol-3-yl)-2,4-dioxo-1,4-dihydro-2H-quinazolin-3-yl]-methanesulfonyl-carbamic acid propyl ester], the responders at 50 mg/kg is 20%.

Take `CCCOC(=O)N(n1c(=O)[nH]c2cc(C(F)(F)F)c(-c3ccnn3C(C)C)cc2c1=O)S(C)(=O)=O` [Example 5.07, [6-(2-Isopropyl-2H-pyrazol-3-yl)-2,4-dioxo-7-trifluoromethyl-1,4-dihydro-2H-quinazolin-3-yl]-methanesulfonyl-carbamic acid propyl ester]: the responders at 50 mg/kg amounted to 40%.

The test is the same for the next values; noted with them: Mus musculus, po; Dose: 15 mg/kg, p.o. (footnote c), pre-treatment time −1 h; read-out: %-Protection.
For `CCOC(=O)CCC(=O)N(n1c(=O)[nH]c2cc(C(C)C)c(-c3ccnn3C)cc2c1=O)S(C)(=O)=O` [Example 3.06, 4-{[7-Isopropyl-6-(2-methyl-2H-pyrazol-3-yl)-2,4-dioxo-1,4-dihydro-2H-quinazolin-3-yl]-methanesulfonyl-amino}-4-oxo-butyric acid ethyl ester], the responders at 15 mg/kg stood at 100%.

`CC(C)COC(=O)N(n1c(=O)[nH]c2cc(C(C)C)c(-c3ccnn3C)cc2c1=O)S(C)(=O)=O` [Example 3.03, [7-Isopropyl-6-(2-methyl-2H-pyrazol-3-yl)-2,4-dioxo-1,4-dihydro-2H-quinazolin-3-yl]-methanesulfonyl-carbamic acid isobutyl ester]: the responders at 15 mg/kg stood at 40%.

Staying with this test, now noted: Mus musculus, po; Dose: 25 mg/kg, p.o. (footnote b), pre-treatment time −1 h; read-out: %-Protection.
In the case of `CCCOC(=O)N(n1c(=O)[nH]c2cc(C(F)F)c(-c3ccnn3C(C)C)cc2c1=O)S(C)(=O)=O` [Example 6.04, [7-Difluoromethyl-6-(2-isopropyl-2H-pyrazol-3-yl)-2,4-dioxo-1,4-dihydro-2H-quinazolin-3-yl]-methanesulfonyl-carbamic acid propyl ester], the responders at 25 mg/kg turned out to be 0%.

Staying with this test, now noted: Mus musculus, po; Table 5; 50 mg/kg, p.o., pre-treatment time −0.25 h; read-out: %-Protection.
For the compound `CC(=O)N(n1c(=O)c2cc(-c3ccnn3C)c(C(C)C)cc2n(C(C)=O)c1=O)S(C)(=O)=O` [Example 3.24, N-Acetyl-N-[1-acetyl-7-isopropyl-6-(2-methyl-2H-pyrazol-3-yl)-2,4-dioxo-1,4-dihydro-2H-quinazolin-3-yl]-methanesulfonamide], the responders at 50 mg/kg is 100%.

The test is the same for the next values; noted with them: Mus musculus, po; Table 5; 50 mg/kg, p.o., pre-treatment time −0.5 h; read-out: %-Protection.
In the case of `CC(=O)N(n1c(=O)c2cc(-c3ccnn3C)c(C(C)C)cc2n(C(C)=O)c1=O)S(C)(=O)=O` [Example 3.24, N-Acetyl-N-[1-acetyl-7-isopropyl-6-(2-methyl-2H-pyrazol-3-yl)-2,4-dioxo-1,4-dihydro-2H-quinazolin-3-yl]-methanesulfonamide], the responders at 50 mg/kg was 100%.

The same test, now with this note: Mus musculus; dose of up to 50 mg/kg, p.o., 1 hour prior to induction of convulsions; read-out: %-Protection.
`CCOC(=O)CCC(=O)N(n1c(=O)[nH]c2cc(C(F)(F)F)c(-c3ccnn3C(C)C)cc2c1=O)S(C)(=O)=O` [4-{[6-(2-Isopropyl-2H-pyrazol-3-yl)-2,4-dioxo-7-trifluoromethyl-1,4-dihydro-2H-quinazolin-3-yl]-methanesulfonyl-amino}-4-oxo-butyric acid ethyl ester]: the responders at 50 mg/kg was 0%.

As to `CCCCCOC(=O)N(n1c(=O)[nH]c2cc(C(F)(F)F)c([C@H]3CCCO3)cc2c1=O)S(C)(=O)=O` [Methanesulfonyl-[(R)-2,4-Dioxo-6-tetrahydro-furan-2-yl-7-trifluoromethyl-1,4-dihydro-2H-quinazolin-3-yl]carbamic acid pentyl ester], the responders at 50 mg/kg amounted to 0%.

`CCc1cc2[nH]c(=O)n(N(C(=O)C(C)C)S(C)(=O)=O)c(=O)c2cc1-c1ccnn1C` [N-[7-Ethyl-6-(2-methyl-2H-pyrazol-3-yl)-2,4-dioxo-1,4-dihydro-2H-quinazolin-3-yl]-N-isobutyryl-methanesulfonamide]: the responders at 50 mg/kg came to 0%.

For the compound `CCc1cc2[nH]c(=O)n(N(C(=O)OC)S(C)(=O)=O)c(=O)c2cc1-c1ccnn1CC` [Methanesulfonyl-[7-ethyl-6-(2-ethyl-2H-pyrazol-3-yl)-2,4-dioxo-1,4-dihydro-2H-quinazolin-3-yl]carbamic acid methyl ester], the responders at 50 mg/kg was 0%.

As for `CCCOC(=O)N(n1c(=O)[nH]c2cc(CC)c(-c3ccnn3CC)cc2c1=O)S(C)(=O)=O` [Methanesulfonyl-[7-ethyl-6-(2-ethyl-2H-pyrazol-3-yl)-2,4-dioxo-1,4-dihydro-2H-quinazolin-3-yl]carbamic acid propyl ester], the responders at 50 mg/kg is 0%.

The test is the same for the next values; noted with them: Table 5; 50 mg/kg, p.o., pre-treatment time −1 h.
For `CC(=O)N(n1c(=O)c2cc(-c3ccnn3C)c(C(C)C)cc2n(C(C)=O)c1=O)S(C)(=O)=O` [Example 3.24, N-Acetyl-N-[1-acetyl-7-isopropyl-6-(2-methyl-2H-pyrazol-3-yl)-2,4-dioxo-1,4-dihydro-2H-quinazolin-3-yl]-methanesulfonamide], the “%-Protection” value came out at 100%.

Values taken from US20130053381A1, “2,4-DIOXO-1,4-DIHYDRO-2H-QUINAZOLIN-3-YL-SULFONAMIDE DERIVATIVES” (NOVARTIS AG, priority 2010, published 2013).
